In the assay the test system is LPS-induced TNF-α release in peripheral blood mononuclear cells (PBMCs). Description: In vitro determination of PDE4 inhibitory activity in the PBMCs assay (LPS-induced TNF-α release). The format is cell-based, human. The following applies: PBMC; human PBMCs, LPS 3 ng/ml, 18 hours, TNF-α by ELISA; read-out: PDE4 inhibition (IC50, 50% inhibition of LPS-induced TNF-α release). The procedure, abridged:
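Cryopreserved human PBMCs (10^5 cells/well) pre-incubated 30 min with compound (10^−12 to 10^−6 M or 10^−3 to 10^−7 M), then stimulated with LPS 3 ng/ml for 18 h at 37 °C. TNF-α in medium by ELISA; IC50 as mean ± 95% confidence limits.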
(ELISA stands for enzyme-linked immunosorbent assay.)

By IC50 is commonly meant the midpoint of a concentration-inhibition curve.

Structures are written as SMILES.

As for `COc1ccc(S(=O)(=O)N2CCS[C@H]2C(=O)O[C@@H](Cc2c(Cl)c[n+]([O-])cc2Cl)c2ccc(OC(F)F)c(OCC3CC3)c2)cc1` [Compound 110, 3,5-dichloro-4-((S)-2-(3-(cyclopropylmethoxy)-4-(difluoromethoxy)phenyl)-2-((S)-3-(4-methoxyphenylsulfonyl)thiazolidine-2-carbonyloxy)ethyl)pyridine 1-oxide], the IC50 was in the range of 0.1 to 1 nM.
Then `O=C(O[C@@H](Cc1c(Cl)c[n+]([O-])cc1Cl)c1ccc(OC(F)F)c(OCC2CC2)c1)C1SCCN1S(=O)(=O)c1ccccc1Cl` (stereo partly drawn) [Compound 70, 3,5-dichloro-4-((2S)-2-(3-(2-chlorophenylsulfonyl)thiazolidine-2-carbonyloxy)-2-(3-(cyclopropylmethoxy)-4-(difluoromethoxy)phenyl)ethyl)pyridine 1-oxide], with 0.1 to 1 nM; and `CS(=O)(=O)Nc1ccc(S(=O)(=O)N2CCSC2C(=O)O[C@@H](Cc2c(Cl)c[n+]([O-])cc2Cl)c2ccc(OC(F)F)c(OCC3CC3)c2)cc1` (stereo partly drawn) [Compound 142, 3,5-dichloro-4-((2S)-2-(3-(cyclopropylmethoxy)-4-(difluoromethoxy)phenyl)-2-(3-(4-(methylsulfonamido)phenylsulfonyl)thiazolidine-2-carbonyloxy)ethyl)pyridine 1-oxide], with 0.1 to 1 nM.

The values above are taken from patent US9931327B2, “Derivatives of 1-phenyl-2-pyridinyl alkyl alcohols as phosphodiesterase inhibitors” (Chiesi Farmaceutici S.p.A., priority 2011, dated 2018).
